≈ marks a conversion by molar mass, not a printed value.

Assay [1] deals with Pseudomonas aeruginosa (P. aeruginosa) 27853. As to the kind of experiment: Antibacterial activity, MIC (Table 5). It is filed as cell-based. The settings on record: P. aeruginosa 27853, read-out: MIC, 27853. The gist of the method: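 Compounds are serially diluted in broth and inoculated with the organism. Growth is then inspected macroscopically, and the lowest concentration showing none is taken as the MIC (μg/mL).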

The test system of a further assay is K. pneumoniae MXX1232. Nature of the assay: Antibacterial activity, MIC, resistant strain (Table 4). The class given is cell-based. The settings on record: Klebsiella pneumoniae, MXX1232; resistant K. pneumoniae MMX1232, multi-drug resistant clinical isolate; read-out: MIC, MMX1232. The gist of the method: (§1)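 Values are minimum inhibitory concentrations in μg/mL from broth microdilution, meaning no macroscopically visible growth at that concentration. Resistant MXX isolates are multi-drug resistant clinical strains.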

The subject of a further assay is A. baumannii MXX2240. The description is as above. It is filed as cell-based. The settings on record: Acinetobacter baumannii, MXX2240; resistant A. baumannii MMX2240, multi-drug resistant clinical isolate; read-out: MIC, MMX2240. The gist of the method:
as §1

Assay [2] deals with Acinetobacter baumannii (A. baumannii) BAA747. As to the kind of experiment: Antibacterial activity, MIC (Table 4). The settings on record: A. baumannii BAA747, read-out: MIC, BAA747. It is filed as cell-based. The gist of the method:
as §1

Assay [3] concerns Klebsiella pneumoniae (K. pneumoniae) 35657. Nature of the assay: Antibacterial activity, MIC (Table 4). The class given is cell-based. To be noted: K. pneumoniae 35657, read-out: MIC, 35657. The gist of the method: as §1
The next assay deals with E. coli ELZ4251. Nature of the assay: Antibacterial activity, MIC, multi-drug resistant clinical isolate (Table 3). It is filed as cell-based. The settings on record: Escherichia coli. An excerpt:
The antibacterial activity from a microbroth dilution method may be presented as the minimum inhibitory concentration (MIC in μg/mL). The MIC value is the lowest concentration of drug which prevents macroscopically visible growth under test conditions.
Antibacterial activity of test compounds against E. coli ELZ4000 and E. coli ELZ4251 multi-drug resistant clinical isolates is shown in Table 3.

Another assay has as its system E. coli LZ3111. Nature of the assay: Antibacterial activity, MIC, quinolone resistant strain (Table 2). It is filed as cell-based. The settings on record: Escherichia coli, LZ3111, read-out: MIC LZ3111. The gist of the method:
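Strain carries mutations conferring high-level quinolone resistance; tested by microbroth dilution, MIC recorded in μg/mL as lowest concentration preventing visible growth.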

The test system of another assay is E. coli 25922. Nature of the assay: Antibacterial activity, microbroth dilution MIC (Table 1). It is filed as cell-based, Escherichia coli. The settings on record: Escherichia coli; microbroth dilution; control Gram-negative E. coli 25922 strain; read-out: MIC, 25922. The gist of the method: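 Read-out: visual absence of growth. The lowest concentration meeting this gives the MIC, expressed in μg/mL, with microbroth dilution as the method.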

In assay [4] the test system is Escherichia coli (E. coli) BAS849. Described as above. It is filed as cell-based. The settings on record: microbroth dilution, super sensitive Gram-negative E. coli BAS849, read-out: MIC, BAS849. The gist of the method:
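In a microbroth dilution test, the minimum inhibitory concentration was defined as the lowest compound level preventing growth seen by eye, and was given in μg/mL.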

The subject of assay [5] is Staphylococcus aureus (S. aureus) 29213. Described as above. It is filed as cell-based. The settings on record: microbroth dilution, Gram-positive S. aureus 29213, read-out: MIC, 29213. The gist of the method:
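Lowest concentration stopping macroscopically visible growth under test conditions, by broth microdilution, defines the MIC (μg/mL).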

Turning to `CCCCNCc1cc2cc(-c3[nH]c(=O)c(C(=O)O)c(O)c3CC)ccc2n1C` [Cpd 333, 6-(2-((butylamino)methyl)-1-methyl-1H-indol-5-yl)-5-ethyl-4-hydroxy-2-oxo-1,2-dihydropyridine-3-carboxylic acid], the MIC was 12.5 to 150 µg/mL (≈ 31.4 to 377 µM) in assay [1]; 12.5 to 150 µg/mL (≈ 31.4 to 377 µM) in the assay on K. pneumoniae MXX1232; 1 to 3.5 µg/mL (≈ 2.52 to 8.81 µM) in the assay with A. baumannii MXX2240; less than 1 µg/mL in [2]; less than 1 µg/mL in [3]; 12.5 to 150 µg/mL (≈ 31.4 to 377 µM) in the assay on E. coli ELZ4251. The MIC was 3.5 to 12.5 µg/mL (≈ 8.81 to 31.4 µM) in the assay on E. coli LZ3111, less than 1 µg/mL in the assay on E. coli 25922, less than 1 µg/mL in [4] and 3.5 to 12.5 µg/mL (≈ 8.81 to 31.4 µM) in assay [5].
As to `CCCCCNCc1cc2cc(-c3[nH]c(=O)c(C(=O)O)c(O)c3CC)ccc2n1C` [Cpd 334, 5-ethyl-4-hydroxy-6-(1-methyl-2-((pentylamino)methyl)-1H-indol-5-yl)-2-oxo-1,2-dihydropyridine-3-carboxylic acid], the MIC in assay [1] was in the range of 12.5 to 150 µg/mL (≈ 30.4 to 365 µM); in the assay on K. pneumoniae MXX1232 it was 12.5 to 150 µg/mL (≈ 30.4 to 365 µM); with A. baumannii MXX2240, 12.5 to 150 µg/mL (≈ 30.4 to 365 µM); in assay [2] it was 1 to 3.5 µg/mL (≈ 2.43 to 8.51 µM); in assay [3], 1 to 3.5 µg/mL (≈ 2.43 to 8.51 µM); against E. coli ELZ4251 it was 12.5 to 150 µg/mL (≈ 30.4 to 365 µM). Besides, the MIC with E. coli LZ3111 is 12.5 to 150 µg/mL (≈ 30.4 to 365 µM); in the assay with E. coli 25922 it was less than 1 µg/mL; in assay [4] it was less than 1 µg/mL; in assay [5], 12.5 to 150 µg/mL (≈ 30.4 to 365 µM).
Regarding `CCCCCCNCc1cc2cc(-c3[nH]c(=O)c(C(=O)O)c(O)c3CC)ccc2n1C` [Cpd 335, 5-ethyl-6-(2-((hexylamino)methyl)-1-methyl-1H-indol-5-yl)-4-hydroxy-2-oxo-1,2-dihydropyridine-3-carboxylic acid], the minimum inhibitory concentration (MIC) in assay [1] was 12.5 to 150 µg/mL (≈ 29.4 to 353 µM); in the assay on K. pneumoniae MXX1232 it was 12.5 to 150 µg/mL (≈ 29.4 to 353 µM); with A. baumannii MXX2240, 12.5 to 150 µg/mL (≈ 29.4 to 353 µM); in assay [2], 3.5 to 12.5 µg/mL (≈ 8.23 to 29.4 µM); in assay [3], 1 to 3.5 µg/mL (≈ 2.35 to 8.23 µM); with E. coli ELZ4251, 12.5 to 150 µg/mL (≈ 29.4 to 353 µM). In addition, the MIC in the assay with E. coli LZ3111 is 1 to 3.5 µg/mL (≈ 2.35 to 8.23 µM); in the assay with E. coli 25922, less than 1 µg/mL; in [4] it was less than 1 µg/mL; in [5], 1 to 3.5 µg/mL (≈ 2.35 to 8.23 µM).
As to `CCCCCCCNCc1cc2cc(-c3[nH]c(=O)c(C(=O)O)c(O)c3CC)ccc2n1C` [Cpd 336, 5-ethyl-6-(2-((heptylamino)methyl)-1-methyl-1H-indol-5-yl)-4-hydroxy-2-oxo-1,2-dihydropyridine-3-carboxylic acid], the MIC (in assay [1]; in the assay on K. pneumoniae MXX1232; in the assay on A. baumannii MXX2240; in assay [2]; in [3]; in the assay with E. coli ELZ4251) was 12.5 to 150 µg/mL (≈ 28.4 to 341 µM) throughout. In addition, the MIC is less than 1 µg/mL in the assay with E. coli LZ3111, 3.5 to 12.5 µg/mL (≈ 7.96 to 28.4 µM) with E. coli 25922, less than 1 µg/mL in assay [4] and less than 1 µg/mL in assay [5].
For `CCCCCCCCNCc1cc2cc(-c3[nH]c(=O)c(C(=O)O)c(O)c3CC)ccc2n1C` [Cpd 337, 5-ethyl-4-hydroxy-6-(1-methyl-2-((octylamino)methyl)-1H-indol-5-yl)-2-oxo-1,2-dihydropyridine-3-carboxylic acid], the minimum inhibitory concentration (MIC) (in assay [1]; with K. pneumoniae MXX1232; with A. baumannii MXX2240; in assay [2]; in [3]; against E. coli ELZ4251) was 12.5 to 150 µg/mL (≈ 27.6 to 331 µM) each time. Also, the MIC in the assay on E. coli LZ3111 was 3.5 to 12.5 µg/mL (≈ 7.72 to 27.6 µM); in the assay with E. coli 25922 it was 12.5 to 150 µg/mL (≈ 27.6 to 331 µM); in [4], less than 1 µg/mL; in assay [5], 1 to 3.5 µg/mL (≈ 2.2 to 7.72 µM).
Regarding `CCCCCCCCCNCc1cc2cc(-c3[nH]c(=O)c(C(=O)O)c(O)c3CC)ccc2n1C` [Cpd 338, 5-ethyl-4-hydroxy-6-(1-methyl-2-((nonylamino)methyl)-1H-indol-5-yl)-2-oxo-1,2-dihydropyridine-3-carboxylic acid], the minimal inhibitory concentration (MIC) (in assay [1]; in the assay on K. pneumoniae MXX1232; with A. baumannii MXX2240; in assay [2]; in assay [3]; against E. coli ELZ4251) was 12.5 to 150 µg/mL (≈ 26.7 to 321 µM) each time. Moreover, the MIC fell in the range of 12.5 to 150 µg/mL (≈ 26.7 to 321 µM) in the assay on E. coli LZ3111, 12.5 to 150 µg/mL (≈ 26.7 to 321 µM) in the assay on E. coli 25922, 1 to 3.5 µg/mL (≈ 2.14 to 7.48 µM) in assay [4] and 3.5 to 12.5 µg/mL (≈ 7.48 to 26.7 µM) in assay [5].

Source of the values: US9409905B2, “Antibacterial compounds and methods for use” (PTC THERAPEUTICS, INC., priority 2011, dated 2016).
